This note sets out measurements from US9873702B2, “Heterocyclic compounds as biogenic amine transport modulators” (Southern Research Institute, priority 2014, dated 2018).

Entries after “also recorded” stand apart in the source; their conditions may differ. Like-named read-outs stand apart in the source and are kept apart here.

For orientation: IC50 means the concentration that inhibits the measured activity by half. A higher IC50 goes with weaker potency in that assay. As a reminder, the Emax is the maximal effect, on the per cent scale that the assay sets.

The target in the assay is dopamine transporter (DAT) (Rattus norvegicus, UniProt P23977). The assay is described as follows: Dopamine reuptake ([^3H]dopamine uptake) inhibition in rat brain synaptosomes. The conditions noted are these: for efficacy of [^3H]DA (DAT) uptake inhibition, in words: partial versus full inhibition.
[1] abbreviates: DA Uptake EC50 (nM ± SD), rat caudate synaptosomes, 5 nM [^3H]dopamine, 15 min, 25° C., three experiments pooled.
Where [2] appears, read: read-out: DA Uptake Emax (% I ± SD).
Where [3] appears, read: One-Site IC50 (nM), [^3H]DA uptake dose-response curve fit to one-component equation.
The mark [4] stands for this setting: Two-Site IC50-1 (nM), [^3H]DA uptake dose-response curve fit to two-component equation, component 1.
Setting [5] is: Two-Site IC50-2 (nM), [^3H]DA uptake dose-response curve fit to two-component equation, component 2.
Setting [6] is: read-out: Two-Site Emax-1 (% I).
[7] abbreviates: read-out: Two-Site Emax-2 (% I).

Sequence of dopamine transporter (DAT) (P23977 whole entry): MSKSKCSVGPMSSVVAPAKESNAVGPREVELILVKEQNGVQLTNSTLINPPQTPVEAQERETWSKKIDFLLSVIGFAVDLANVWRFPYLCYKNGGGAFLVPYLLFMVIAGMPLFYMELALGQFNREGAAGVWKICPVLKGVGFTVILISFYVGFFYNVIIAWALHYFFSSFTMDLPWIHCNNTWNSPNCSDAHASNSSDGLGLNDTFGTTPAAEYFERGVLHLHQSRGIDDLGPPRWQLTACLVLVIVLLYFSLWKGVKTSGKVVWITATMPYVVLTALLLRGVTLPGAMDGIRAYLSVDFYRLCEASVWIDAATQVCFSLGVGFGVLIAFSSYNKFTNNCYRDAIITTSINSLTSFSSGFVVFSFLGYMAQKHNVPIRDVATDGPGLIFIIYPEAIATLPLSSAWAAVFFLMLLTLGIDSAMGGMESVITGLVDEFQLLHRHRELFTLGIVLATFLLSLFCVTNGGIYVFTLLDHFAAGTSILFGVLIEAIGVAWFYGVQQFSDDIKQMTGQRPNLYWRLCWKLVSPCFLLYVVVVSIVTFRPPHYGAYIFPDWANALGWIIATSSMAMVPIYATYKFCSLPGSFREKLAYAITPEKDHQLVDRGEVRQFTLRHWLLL

Take `c1ccc(C(CNc2nc(-c3ccc4nnnn4c3)nc3ccccc23)c2ccccc2)cc1` [compound 108, N-(2,2-Diphenylethyl)-2-(Tetrazolo[1,5-A]Pyridin-6-yl)Quinazolin-4-Amine]: the IC50 under setting [1] came out at 229 ± 54 nM. Further, the Emax under setting [2] was determined as 47 ± 2%.
The corresponding values for `Cc1ccc(-c2nc(NCC(c3ccccc3)c3ccccc3)c3ccccc3n2)c2nccn12` [compound 197, N-(2,2-Diphenylethyl)-2-(5-Methylimidazo[1,2-A]pyridin-8-yl)Quinazolin-4-Amine] are 208 ± 34 nM and 92 ± 3%.
Turning to `CN(C)c1ccc(-c2nc(NCC(c3ccccc3)N3CCOCC3)c3ccccc3n2)cc1` (centres unmarked) [SRI-30835], the “efficacy of [^3H]DA (DAT) uptake inhibition, in words” value is “partially inhibit”. This compound returned an IC50 under setting [3] of 15 ± 7 nM. This compound yielded an IC50 under setting [4] of 6 ± 0.9 nM. Also, the IC50 under setting [5] was found to be 4000 ± 1330 nM. Moreover, the Emax (read-out: One-Site Emax (% I)) is 75 ± 5%. For the same compound, the Emax under setting [6] worked out at 57 ± 2%. In addition, the Emax under setting [7] turned out to be 42 ± 4%.
For the compound `c1ccc(C(CNc2nc(-c3ccc4c(c3)CCN4)nc3ccccc23)c2ccccc2)cc1` [compound 84, N-(2,2-Diphenylethyl)-2-(Indolin-5-yl)Quinazolin-4-Amine], the “efficacy of [^3H]DA (DAT) uptake inhibition, in words” value is reported as “partially inhibit; also recorded: partial inhibitors”. In addition, the IC50 under setting [3] came to 18 ± 4 nM. Further, the IC50 under setting [4] came to 1.8e+06 nM. Under setting [5], this compound displayed an IC50 of 1.8e+06 nM. Under setting [2], the Emax turned out to be 75 ± 3%. Also, the Emax (read-out: One-Site Emax (% I)) was 75 ± 3%. Besides, the Emax under setting [6] amounted to 37%. Also, under setting [7], the Emax was found to be 37%.
The compound `c1ccc2c(NCC(c3ccncc3)c3ccncc3)nc(-c3cnc4nccn4c3)nc2c1` [compound 176, N-(2,2-Di(Pyridin-4-yl)Ethyl)-2-(Imidazo[1,2-A]Pyrimidin-6-yl)Quinazolin-4-Amine] returned an IC50 under setting [1] of 299 ± 45 nM. Besides, the Emax under setting [2] came out at 70 ± 2%.
The corresponding values for `c1ccc(C(CNc2nc(-c3c[nH]c4ccccc34)nc3ccccc23)c2ccccc2)cc1` [compound 82, N-(2,2-Diphenylethyl)-2-(1H-Indol-3-yl)Quinazolin-4-Amine] are 239 ± 84 nM and 93 ± 7%.
The corresponding values for `CN1CCN(C(CNc2nc(-c3cnc4nccn4c3)nc3ccccc23)c2ccccc2)CC1` (centres unmarked) [compound 129, 2-(Imidazo[1,2-A]Pyrimidin-6-yl)-N-(2-(4Methylpiperazin-1-yl)-2-Phenylethyl)Quinazolin-4-Amine] are 49 ± 9 nM and 71 ± 2%.
Turning to `Cc1c(-c2nc(NCC(c3ccccc3)c3ccccc3)c3ccccc3n2)ccc2nccn12` [compound 195, N N-(2,2-Diphenylethyl)-2-(5-Methylimidazo[1,2-A]Pyridin-6-yl)Quinazolin-4-Amine], the IC50 under setting [1] turned out to be 34 ± 6 nM. Moreover, under setting [2], the Emax is 74 ± 2%.
As to `c1ccc(C(CNc2nc(N3CCCCC3)nc3ccccc23)c2ccccc2)cc1` [compound 4, N-(2,2-Diphenylethyl)-2-(piperidin-1-yl)quinazolin-4-amine], under setting [1], the IC50 is 60 nM. Besides, the Emax under setting [2] came out at 100%.
The corresponding values for `c1ccc(C(CNc2nc(-c3cccn4ccnc34)nc3ccccc23)c2ccccc2)cc1` [compound 147, N-(2,2-Diphenylethyl)-2-(Imidazo[1,2-A]pyridin-8-yl)Quinazolin-4-Amine] are 92 ± 21 nM and 92 ± 4%.
The corresponding values for `c1ccc(C(CNc2nc(-c3cccnc3)nc3ccccc23)c2ccccc2)cc1` [compound 2, N-(2,2-Diphenylethyl)-2-(pyridin-3-yl)quinazolin-4-amine] are 480 nM and 100%.
Turning to `c1ccc(C(CNc2nc(-c3cnc4ccnn4c3)nc3ccccc23)c2ccccc2)cc1` [compound 199, N-(2,2-Diphenylethyl)-2-(Pyrazolo[1,5-a]Pyrimidin-6-yl)Quinazolin-4-Amine], under setting [1], the IC50 was found to be 9.1 ± 2.1 nM. Also, under setting [2], the Emax was 73 ± 3%.
`c1ccc(C(CNc2nc(-c3ccc4nccn4c3)nc3ccccc23)c2ncccn2)cc1` (centres unmarked) [compound 103, 2-(Imidazo[1,2-A]Pyridin-6-yl)-N-(2-Phenyl-2-(Pyrimidin-2-yl)Ethyl)Quinazolin-4-Amine] returned an IC50 under setting [1] of 553 ± 82 nM. Further, the Emax under setting [2] turned out to be 73 ± 2%.
The corresponding values for `FC(F)(F)c1cc2nccn2cc1-c1nc(NCC(c2ccccc2)c2ccccc2)c2ccccc2n1` [compound 200, N-(2,2-Diphenylethyl)-2-(7-(Trifluoromethyl)Imidazo[1,2-a]Pyridin-6-yl)Quinazolin-4-Amine] are 2.3 ± 0.3 nM and 74 ± 2%.
The corresponding values for `COCc1c[nH]c2ccc(-c3nc(NCC(c4ccccc4)c4ccccc4)c4ccccc4n3)cc12` [compound 116, N-(2,2-Diphenylethyl)-2-(3-(Methoxymethyl)-1H-Indol-5-yl)Quinazolin-4-Amine] are 165 ± 15 nM and 69 ± 1%.
The corresponding values for `Cc1cc2nccn2cc1-c1nc(NCC(c2ccccc2)C2CCCC2)c2ccccc2n1` (centres unmarked) [compound 194, N-(2-Cyclopentyl-2-Phenylethyl)-2-(7-Methylimidazo[1,2-A]pyridin-6-yl)Quinazolin-4-Amine] are 1.6 ± 0.3 nM and 74 ± 2%.
The compound `c1ccc(C(CNc2nc(-c3ccc4nccn4c3)nc3ccccc23)c2ccncc2)cc1` (centres unmarked) [compound 106, 2-(Imidazo[1,2-A]Pyridin-6-yl)-N-(2-Phenyl-2-(Pyridin-4-yl)Ethyl)Quinazolin-4-Amine] displayed an IC50 under setting [1] of 11 ± 2 nM. Besides, the Emax under setting [2] amounted to 77 ± 2%.
The corresponding values for `c1ccc(C(CNc2nc(-c3ccc4nccn4c3)nc3ccccc23)n2ccnc2)cc1` (centres unmarked) [compound 115, N-(2-(1H-Imidazol-1-yl)-2-Phenylethyl)-2-(Imidazo[1,2-A]Pyridin-6-yl)Quinazolin-4-Amine] are 83 ± 27 nM and 58 ± 3%.
The corresponding values for `Nc1ncc(-c2nc(NCC(c3ccccc3)c3ccccn3)c3ccccc3n2)cn1` (centres unmarked) [compound 95, 2-(2-Aminopyrimidin-5-yl)-N-(2-Phenyl-2-(Pyridin-2-yl)Ethyl)Quinazolin-4-Amine] are 385 ± 89 nM and 72 ± 4%.
The corresponding values for `c1ccc(C(CNc2nc(-c3cnc4nccn4c3)nc3ccccc23)N2CCCCC2)cc1` (centres unmarked) [compound 120, 2-(Imidazo[1,2-A]Pyrimidin-6-yl)-N-(2-Phenyl-2-(Piperidin-1-yl)Ethyl)Quinazolin-4-Amine] are 89 ± 27 nM and 81 ± 4%.
Turning to `c1ccc(C(CCNc2nc(-c3ccsc3)nc3ccccc23)c2ccccc2)cc1` [compound 5, N-(3,3-Diphenylpropyl)-2-(thiophen-3-yl)quinazolin-4-amine], the IC50 under setting [1] is 416 ± 22 nM. Besides, the Emax under setting [2] was 83 ± 1%.
The corresponding values for `c1ccc(C(CCNc2nc(-c3cccnc3)nc3ccccc23)c2ccccc2)cc1` [compound 1, N-(3,3-Diphenylpropyl)-2-(pyridin-3-yl)quinazolin-4-amine] are 443 ± 88 nM and 82 ± 3%.
The corresponding values for `c1ccc(C(Nc2nc(N3CCCCC3)nc3ccccc23)c2ccccc2)cc1` [compound 3, N-Benzhydryl-2-(piperidin-1-yl)quinazolin-4-amine] are 150 nM and 100%.
For the compound `c1ccc(C(CNc2nc(-c3cnc4nccn4c3)nc3ccccc23)c2cccnc2)cc1` (centres unmarked) [compound 134, 2-(Imidazo[1,2-A]Pyrimidin-6-yl)-N-(2-Phenyl-2-(Pyridin-3-yl)Ethyl)Quinazolin-4-Amine], the IC50 under setting [1] was found to be 31 ± 7 nM. The Emax under setting [2] turned out to be 72 ± 3%.
